Measurements: patent US7374748B2, “Pharmaceutical and cosmetic compositions for the protection of the skin from damages induced by sun radiations” (Indena S.p.A., priority 2001, dated 2008)

Tested on: hepatic microsomes
Assay: antioxidant test with CCl4 as pro-oxidant stimulus and hepatic microsomes as target
Type: biochemical
Settings: CCl4 as pro-oxidant stimulus, hepatic microsomes as target
From the text: They are characterized by excellent antioxidizing and antiinflammatory properties.

vitamin E
LC50 (antioxidant activity): 30.0 micrograms per ml
